These results are taken from US20030044861A1, “Method for diagnosing neoplasia” (priority 1998, published 2003).

The target in test [1] is T1, PDE peak A (PDE5) from SW-480 cells (Homo sapiens, UniProt O76074).
T1 construct: SW-480 cells are collected and homogenized; The homogenate is centrifuged, and the supernatant is loaded onto a DEAE-Trisacryl M column; endogenous in cells; host or cells: SW-480 human colon carcinoma cells, DEAE-Trisacryl M fraction peak A
Nature of the test: cGMP hydrolysis by PDE peak A. Format: biochemical.

The test system of test [2] is PDE peak B (novel cGMP-specific PDE) from SW-480 cells. Description: cGMP hydrolysis by PDE peak B. It counts as biochemical, human. To be noted: for IC50: cGMP hydrolysis, 0.25 μM 3H-cGMP substrate; for Km: peak B.
Another test has as its system HT-29 cells. Nature of the test: Apoptosis and necrosis by morphology (acridine orange/ethidium bromide). It counts as cell-based. As to conditions: for % Apoptosis / % Necrosis: HT-29 cells treated for 6 days. As for the experimental part: In one type of apoptosis assay, suspected neoplastic cells are removed from a patient. The cells are then grown in culture in the presence or absence of a cGMP-specific PDE inhibitor. Apoptotic cells are measured by combining both the attached and “floating” compartments of the cultures. The protocol for treating tumor cell cultures with PDE inhibitors and related compounds to obtain a significant amount of apoptosis has been described in the literature. (See, Piazza, G. A., et al., Cancer Research, 55:3110-16, 1995, which is incorporated herein by reference). The novel features of this assay include collecting both floating and attached cells, identification of the optimal treatment times and dose range for observing apoptosis, and identification of optimal cell culture conditions.
Following treatment of neoplastic and normal cells with a test compound, cultures can be assayed for apoptosis and necrosis by fluorescent microscopy following labeling with acridine orange and ethidium bromide. The method for measuring apoptotic cell number has previously been described by Duke & Cohen, “Morphological And Biochemical Assays Of Apoptosis,” Current Protocols In Immunology, Coligan et al., eds. 3.17.1-3.17.16 (1992, which is incorporated herein by reference).
For example, floating and attached cells are collected, and aliquots of cells are centrifuged. The cell pellet is then resuspended in media and a dye mixture containing acridine orange and ethidium bromide. The mixture is then examined microscopically for morphological features of apoptosis.
Apoptotic and necrotic cell death was determined as previously described (Duke and Cohen, In: Current Protocols in Immunology, 3.17.1-3.17.16, New York, John Wiley and Sons, 1992). […] All data were collected from the same experiment.
The diagnostic method of this invention is used to determine whether a particular neoplasia is sensitive to treatment with a cGMP-specific PDE inhibitor. The apoptosis inducing activity for a series of phosphodiesterase inhibitors, specific for different PDEs, was determined. HT-29 cells were treated for 6 days with various inhibitors of phosphodiesterase. Apoptosis and necrosis were determined morphologically after acridine orange and ethidium bromide labeling in accordance with the assay described, supra.

The next test deals with neoplastic cells. Description: Apoptosis induction and growth inhibition in neoplastic cells (words only). It counts as cell-based.
Test [3] relates to colonic polyps of familial polyposis patients. Description: Apoptosis clinical study, apoptotic labeling index (ALI) in biopsies. It counts as in vivo, human. The method, then:
Increases in apoptosis are indicative that the neoplasia in question is sensitive to treatment with a cGMP-specific PDE inhibitor, such as sulindac sulfone (aposulind). A human in vivo aposulind-induced selective induction of apoptosis in colonic polyps is described below. Six familial polyposis patients per group were administered one of three doses of aposulind (200 mg, 400 mg which was later lowered to 200 mg for most patients in the group, or 300 mg) twice daily (BID).
Biopsies are taken from patients and used to investigate possible cellular mechanisms of apoptosis. Biopsy samples are placed in transfer media (500 ml RPMI1640 containing 50 ml fetal calf serum, 5×10^8 units penicillin G, and 5×10^6 μg streptomycin) and kept on ice for less than 1 hour until transfer to the pathology department. Upon receipt in the pathology department, samples are removed from the transfer media and oriented mucosa up, serosa down on filter paper, placed between biopsy sponges in a tissue cassette, and fixed in 10% neutral buffered formalin for 24 hours. Samples are then transferred to 70% ethanol and embedded in paraffin. Samples are oriented perpendicularly to the tissue cassette during final orientation in paraffin for longitudinal crypt exposure and easy visualization of mucosa and the relation to the basement membrane.
Four micron sections of tissue were cut, mounted, deparaffinized, rehydrated in graded alcohol, and treated with pepsin (5 mg/ml) to digest protein in the tissue. Sections were washed and treated with 2% hydrogen peroxide (H2O2) in PBS to quench endogenous peroxidase and washed again. Tissue samples were then circled with a PAP pen (Research Products Int., 800-323-9814) to produce a hydrophobic barrier to concentrate reagents on the sample. If a DNase positive control is desired, the sample is treated with DNase for 10 minutes, equilibrated in transferase buffer, and treated using 100 enzyme units/ml terminal transferase enzyme (TdT) at 37° C. for 60 minutes. Samples are washed and anti-digoxigenin-peroxidase is applied. Each sample is then covered with a coverslip and left in a humid box at room temperature for 30 minutes. After washing three times peroxidase is developed using DAB for nine minutes. After sufficient color development, the slides are washed and counterstained with hemotoxylin and eosin.
Apoptotic and nonapoptotic cells are counted on the basis of staining and morphology. An apoptotic labeling index (ALI) is calculated by dividing the total number of apoptotic cells counted by the total number of epithelial cells counted and expressing the quotient as a percentage.

A further test has as its target PDE5 cGMP-binding sites (Bos taurus, UniProt Q28156). To be noted: bovine PDE5; read-out: Kd of high affinity binding site; cited from earlier work.
For test [4], the target named is T2, GST-PDE5 binding domain fusion protein (Homo sapiens, UniProt O76074).
T2 construct: made in house; host or cells: E. coli BL21
Nature of the test: Cyclic GMP binding assay, 3H-cGMP saturation binding. As to conditions: read-out: Km for cGMP; 3H-cGMP saturation binding curve at 25° C. As for the experimental part: The assay was performed in a total volume of 100 μL containing 5 mM sodium phosphate buffer (pH 6.8), 1 mM EDTA and 0.25 mg/ml BSA and H^3-cGMP (5.8 Ci/mmol, NEN). The purified soluble GST-PDE5 binding domain fusion protein (5 to 50 μg/assay) was incubated at […] for one hour and then transferred to a Brandel MB-24 Cell Harvester with GF/B as the filter membrane. Next the fusion protein was washed twice with 10 mL of cold 5 mM potassium buffer, pH 6.8. The membranes were cut out and transferred to scintillation vials, then 1 ml of H2O and 6 ml of Ready Safe liquid scintillation cocktail as added and the samples were counted on a Beckman LS 6500 scintillation counter. A ^3H-cGMP saturation binding curve at 25° C. was generated.

“Also recorded” adds a separate entry of the source. Like-named read-outs stand apart in the source and are kept apart here.

Take `CCCCCC[C@@H]([C@@H](C)O)n1cnc2c(N)ncnc21` (racemic) [EHNA]: the IC50 was over 100 µM in test [1] (cGMP hydrolysis, 0.25 μM 3H-cGMP substrate) and 3.7 µM in test [2].
For the molecule `COc1nc2c([nH]1)c(=O)n(C)c(=O)n2CC(C)C` [8-methoxy-IBMX], in the test with HT-29 cells, the “% Apoptosis” value stood at 2% and the “% Necrosis” value came out at 1%.
Turning to `O=C([O-])C1CCN(c2nc(NCc3ccc4c(c3)OCO4)c3cc(Cl)ccc3n2)CC1.[Na+]` [Compound E4021], in the test with neoplastic cells, the “Apoptosis induction in neoplastic cells (in words)” value (“Apoptosis induction” below) is recorded as “none of the three; also recorded: do not have significant apoptosis-inducing or growth-inhibiting properties” and the “Growth inhibition of neoplastic cells (in words)” value (“Growth inhibition” for short) is “none of the three; also recorded: do not have significant apoptosis-inducing or growth-inhibiting properties”. Moreover, in test [2], the “Sensitivity of the new cGMP-PDE to inhibition (in words)” value (“Sensitivity … to inhibition (in words)” below) is listed as “relatively insensitive”.
As for `COc1cc(/C=C2/C(C)=C(CC(=O)NCc3ccccc3)c3cc(F)ccc32)cc(OC)c1OC` [Compound E, [(Z)-5-fluoro-2-methyl-1-(3,4,5-trimethoxybenzylidene)-3-indenylacetamide, N-benzyl]], in the test on neoplastic cells, the “Apoptosis induction” value is “induce apoptosis in neoplastic cells” and the “Growth inhibition” value is recorded as “precisely the opposite”. Further, in test [1], the “Mode of inhibition of cGMP hydrolysis, peak A” value is on record as “competitively inhibit”. Besides, the “Ratio (IC50 PeakA/Peak B)” value in test [1] (cGMP hydrolysis) worked out at 1.0. For the same molecule, in test [2], the “Mode of inhibition of cGMP hydrolysis, peak B” value is recorded as “competitively inhibit” and the IC50 turned out to be 0.37 µM.
Turning to `CC1=C(CC(=O)O)c2cc(F)ccc2/C1=C\c1ccc(S(C)(=O)=O)cc1` [Exisulind, (Z)-5-fluoro-2-methyl-1-[[4-(methylsulfonyl)phenyl]methylene]indene-3-yl acetic acid], the “Apoptotic and necrotic cell death (FIG. 1, in words)” value in the test on HT-29 cells (HT-29 cells treated for six days) was “capable of causing apoptotic cell death without inducing neoplastic cell necrosis”. Moreover, the “Change in ALI after treatment” value in test [3] (200 mg BID group) is reported as “did not demonstrate any elevation”. For the same molecule, the “Mean Polyp ALI” value in test [3] (200 mg BID, Month 1) was 4.05%; in test [3] (200 mg BID, Month 4), 4.52%; in test [3] (200 mg BID, Month 6) it was 5.90%; in test [3] (300 mg BID, Month 1), 4.90%; in test [3] (300 mg BID, Month 6), 15.63%; in test [3] (400/200 mg BID, Month 1), 10.98%. The “Mean Polyp ALI” value was 5.51% in test [3] (400/200 mg BID, Month 4) and 5.10% in test [3] (400/200 mg BID, Month 6). Also, the “Change in ALI of polyps after treatment” value in test [3] (300 mg BID, six months) is reported as “two fold increase”. Further, the “Change in ALI of dysplastic tissue after treatment” value in test [3] (400/200 mg BID group while uniformly dosed at 400 mg BID) was “two-fold elevation”. Further, the “Polyp size and number” value in test [3] (familial polyposis patients) was “diminution of polyp size and decrease in polyp number”. Also, the “Change in normal mucosa ALI versus baseline ALI” value in test [3] (normal mucosa, any treatment group, over time) is given as “no significant change”. The “Apoptosis levels in regressing polyps” value in test [3] (over six months of treatment) was “doubled”.
Take `CC(C)Cn1c(=O)n(C)c(=O)c2[nH]cnc21` [IBMX]: in the test with HT-29 cells, the “% Apoptosis” value was 4% and the “% Necrosis” value is given as 13%.
With `CC1(C)C(=O)Nc2ccc(C3=NNC(=O)CC3)cc21` [Indolidan], the “Ratio (IC50 PeakA/Peak B)” value in test [1] (cGMP hydrolysis) is reported as under 0.31. In test [2], the “Sensitivity … to inhibition (in words)” value is “relatively insensitive” and the concentration for half-maximal inhibition (IC50) is over 100 µM.
As to `Clc1cccc(Nc2nnc(-c3ccccc3)c3ccccc23)c1` [MY5445], in the test with HT-29 cells, the “% Apoptosis” value is given as 80% and the “% Necrosis” value was 5%.
In the same order, the values of `CCCCOc1cc(CC2CNC(=O)N2)ccc1OC` (stereo not drawn) [RO-20-1724] are 11% and 2%.
Take `COc1ccc(C2CNC(=O)C2)cc1OC1CCCC1` (stereo not drawn) [Rolipram]: in test [2], the “Sensitivity … to inhibition (in words)” value is reported as “relatively insensitive” and the IC50 was over 100 µM.
On to `CCCc1nn(C)c2c(=O)[nH]c(-c3cc(S(=O)(=O)N4CCN(C)CC4)ccc3OCC)nc12` [Sildenafil], for which, in the test with neoplastic cells, the “Apoptosis induction” value is reported as “none of the three; also recorded: do not have significant apoptosis-inducing or growth-inhibiting properties” and the “Growth inhibition” value is “none of the three; also recorded: do not have significant apoptosis-inducing or growth-inhibiting properties”. The “Inhibition of peak A activity (in words)” value in test [1] is given as “inhibited activity of peak A”.
Take `CCOC(=O)C1=C[C@]2(CC)CCCN3CCc4c(n1c1ccccc41)[C@@H]32` [Vinpocetine]: in test [2], the “Sensitivity … to inhibition (in words)” value is given as “relatively insensitive” and the half-inhibitory concentration (IC50) was over 100 µM.
Turning to `CCCOc1ccccc1-c1nc2nn[nH]c2c(=O)[nH]1` [Zaprinast], in the test with neoplastic cells, the “Apoptosis induction” value is on record as “do not have significant apoptosis-inducing or growth-inhibiting properties” and the “Growth inhibition” value is “do not have significant apoptosis-inducing or growth-inhibiting properties”. In addition, in the test with neoplastic cells (listed as zaprinast), the “Apoptosis induction” value was “none of the three” and the “Growth inhibition” value is listed as “none of the three”. Further, the “Mode of inhibition of cGMP hydrolysis, peak A” value in test [1] is on record as “competitive inhibition”.
Regarding `Nc1nc2c(ncn2[C@@H]2O[C@@H]3COP(=O)(O)O[C@H]3[C@H]2O)c(=O)[nH]1` [cGMP], the Km in test [1] (read-out: Km of the enzyme for cGMP, peak A) is 1.07 µM; in test [4], 0.41 ± 0.08 µM; in test [2] (decreasing slope of Eadie-Hofstee plot, absence of cAMP, read-out: apparent Km) it was 8.4 µM; in test [2] (increasing slope of Eadie-Hofstee plot, called submicromolar affinity, read-out: Km), under 1 µM. Also, the Kd at PDE5 cGMP-binding sites is 0.5 µM.

By IC50 is commonly meant the concentration that gives 50% inhibition. Low readings indicate inhibition by little substance, high ones a need for much substance. As a reminder, the Km is the concentration of substrate that gives half-maximal velocity. One may read the Kd as the concentration at which binding is half-saturated.
